Data as given in EP3248604A1, “AGENTS FOR MODULATION OF WNT-TCF SIGNALLING AND USES THEREOF” (UNIVERSITE DE GENEVE, priority 2016, dated 2017).

Assays:
[1] = test system: cell proliferation; test: BrdU incorporation assay; type: cell-based; details: Example 3 (Ls174T, DLD1 cells)
Description: Cells incubated in vitro with different compounds were treated in DMEM-F12 with reduced serum (2.5% FBS) for 20 min with BrdU (5-bromo-2'-deoxyuridine; 10mg/ml, Sigma), washed and fixed with fresh paraformaldehyde (PFA; 4%, pH 8) followed by acid treatment and neutralization (Melotti et al., 2014, supra). Antibody analyses used anti-BrdU antibodies (supplied by University of Iowa Hybridoma Bank) and rhodamine-coupled anti-mouse secondary antibodies (Invitrogen Molecular Probes). Nuclei were counterstained with DAPI (4',6-diamidino-2-phenylindole; Sigma).

[2] = test system: WNT-TCF targets; test: RT-qPCR gene expression in DLD1 cells; type: cell-based, human
Description: (§1) RT-qPCR was performed as in Melotti et al. (2014, supra) using BioRad equipment and reagents. Cells cultured in nitro were treated with the desired concentration of drug in DMEM-F12 and reduced serum (2.5% FBS) for 16h, unless otherwise noted, and collected in Trizol (Sigma) before total RNA extraction and cDNA synthesis. Primers were as in Table 1. HPRT (gene encoding Hypoxanthine phosphoribosyltransferase 1) and βACTIN were used as housekeeping controls for normalization.
(§2) Primary colon cells CC14, CC36 and mCC11, colon cancer cell lines DLD1, HT29, Ls174T, melanoma cell line MeWo, glioblastoma cell lines U87 and U251, and the lung cancer cell line H358 were cultured in DMEM-F12 with 10% FBS under standard in nitro conditions.

[3] = test system: WNT-TCF targets; test: RT-qPCR gene expression in CC14 primary colon cancer cells; type: cell-based, human; set-up: cMYC expression: scale not given here
Description: as §1
Primary colon cells CC14 were cultured in DMEM-F12 with 10% FBS under standard in vitro conditions.
as §2

[4] = test system: WNT-TCF targets; test: RT-qPCR gene expression in U87 glioblastoma cells; type: cell-based, human; details: 16h, batch 3, vs DMSO=1
Description: as §1, §2

[5] = test system: WNT-TCF targets; test: RT-qPCR gene expression in U251 glioblastoma cells; type: cell-based, human; details: 16h, batch 3, vs DMSO=1
Description: as §1, §2

[6] = test system: DLD1 cells; test: Clonal spheroid assay, DLD1; type: cell-based, human; details: Homo sapiens, DLD-1, 16 h, read-out: IC50, number of stem cell-derived spheroids
Description: Cells were treated with different concentrations of compounds for 16h in 2D adherent culture, washed, harvested and plated in suspension with serum-free DMEM-F12 media with B27 supplement (1:50 dilution) at 1 cell/well in 96-well format in triplicates. Plated cells were monitored to ensure the presence of single cells in each well and spheroids counted and photographed after 10 days for each round.
To directly test for a long-lasting repression of WNT-TCF targets by CAP2 clonogenic properties of cancer stem cells were tested. DLD1 and LS174T cells were first treated with CAP2 in 2D culture in vitro followed by removal of the drug, washing with PBS, and plating under non-adherent 3D conditions for clonal spheroid growth in the absence of the drug. After primary spheroid growth, the spheroids were dissociated and replated as single cells for secondary and subsequent clonogenic spheroid formation, also in the absence of the compound of the invention. As negative control DMSO-treatment was used.

[7] = test system: WNT-TCF targets; test: Epistatic rescue with TCF^VP16, Ls174T; type: cell-based, human; details: CAP2 5µM, 16h
Description: Lentivectors expressing a TCF4^VP16 protein in a vector independently expressing GFP, or vector alone, plus reporter plasmids were transfected into cells. 72h after transfection cells were visually checked for expression of GFP. Independent batches of cells with >80% GFP expression were chosen for further experimentation and treated with or without compounds in DMEM-F12 (with 2.5% FBS) for 16h and collected in Trizol.
If the effects of CAP2 on WNT-TCF targets were specific, an activated form of TCF should rescue the repression since CAP2 is likely to act downstream of the APC destruction complex since it was found using an N'Δ form of βCATENIN that is APC insensitive. To activate this last step of canonical WNT signaling, a fusion between TCF and the potent transactivation domain of the viral VP16 protein, TCF^VP16 (Melotti et al., 2014, supra), was used to directly and positively regulate TCF targets. […] Rescue of LGR5, cMYC and ASCL2 repression by CAP2 (at 5µM) was also observed although there was variability between the cell types, similarly to the repression of CDKN1A (Table 8), although in all cases it reversed its enhancement by CAP2 treatment (Table 8).

[8] = DLD1, 1.25µM, 16h, batch 3, vs DMSO=1
[9] = DLD1, 2.5µM, 16h, batch 3, vs DMSO=1
[10] = DLD1, 5µM, 16h, batch 3, vs DMSO=1
[11] = DLD1, 10µM, 16h, batch 3, vs DMSO=1
[12] = Table 7, DLD1, 1.25µM, vs DMSO=1
[13] = Table 7, DLD1, 2.5µM, vs DMSO=1
[14] = Table 11, head 'in vitro', DLD1, concentration not given
[15] = Table 13, DLD1 secondary 3D spheroids, pretreated 2.5µM
[16] = CC14, 1.25µM, 16h, batch 3, vs DMSO=1
[17] = CC14, 2.5µM, 16h, batch 3, vs DMSO=1
[18] = CC14, 5µM, 16h, batch 3, vs DMSO=1
[19] = CC14, 10µM, 16h, batch 3, vs DMSO=1

For `CC1=C(C)C(=O)O[C@@H]([C@](C)(O)[C@]2(O)CC[C@@]3(O)[C@@H]4CC=C5CC=CC(=O)[C@]5(C)[C@H]4CC[C@]23C)C1` [CAP2], the “concentration which changes cell proliferation assessed by BrdU incorporation” value [1] was 1.25 µM, the AXIN2 expression [2, 8] was 1.2 and the LGR5 expression [2, 8] was 1.6. It also gave an AXIN2 expression [2, 9] of 0.2, an LGR5 expression [2, 9] of 0.3 and an AXIN2 expression [2, 10] of 0.3. It also gave an LGR5 expression [2, 10] of 0.1, an AXIN2 expression [2, 11] of 0.1 and an LGR5 expression [2, 11] of 0.04. For the same molecule, the “AXIN2 expression level as compared to control” value ([2]; DLD1, 2D culture, 2.5µm) was 0.2, the ASCL2 expression [2, 12] was 0.2 and the AXIN2 expression [2, 12] was 0.8. The CDKN1A expression [2, 12] was 7.2, the LEF1 expression [2, 12] was 0.4 and the LGR5 expression [2, 12] was 0.5. For the same molecule, the cMYC expression [2, 12] was 0.5, the ASCL2 expression [2, 13] was 0.2 and the AXIN2 expression [2, 13] was 0.6. The CDKN1A expression [2, 13] was 8.6, the LEF1 expression [2, 13] was 0.3 and the LGR5 expression [2, 13] was 0.3. The cMYC expression [2, 13] was 0.2, the ASCL2 expression ([2]; Table 7, DLD1, 5µM, vs DMSO=1) was 0.3 and the AXIN2 expression ([2]; Table 7, DLD1, 5µM, vs DMSO=1) was 0.5. The CDKN1A expression ([2]; Table 7, DLD1, 5µM, vs DMSO=1) was 9.0, the LEF1 expression ([2]; Table 7, DLD1, 5µM, vs DMSO=1) was 0.1 and the LGR5 expression ([2]; Table 7, DLD1, 5µM, vs DMSO=1) was 0.1. The cMYC expression ([2]; Table 7, DLD1, 5µM, vs DMSO=1) was 0.001, the ASCL2 expression ([2]; Table 7, DLD1, 10µM, vs DMSO=1) was 0.3 and the AXIN2 expression ([2]; Table 7, DLD1, 10µM, vs DMSO=1) was 0.2. It also gave a CDKN1A expression ([2]; Table 7, DLD1, 10µM, vs DMSO=1) of 6.1, an LEF1 expression ([2]; Table 7, DLD1, 10µM, vs DMSO=1) of 0.1 and an LGR5 expression ([2]; Table 7, DLD1, 10µM, vs DMSO=1) of 0.1. For the same molecule, the cMYC expression ([2]; Table 7, DLD1, 10µM, vs DMSO=1) was 0.0002, the ASCL2 expression [2, 14] was 0.3 and the AXIN2 expression [2, 14] was 0.5. It also gave an LGR5 expression [2, 14] of 0.1, an AXIN2 expression ([2]; Table 13, DLD1 2D, 2.5µM) of 0.2 and a cMYC expression ([2]; Table 13, DLD1 2D, 2.5µM) of 0.1. For the same molecule, the AXIN2 expression [2, 15] was 0.5, the cMYC expression [2, 15] was 0.4 and the AXIN2 expression ([3]; 100 nM, Example 2 cells (CC14)) was 0.7. It also gave an LGR5 expression ([3]; 100 nM, Example 2 cells (CC14)) of 0.3, a cMYC expression ([3]; 100 nM, Example 2 cells (CC14)) of 0.2 and an AXIN2 expression [3, 16] of 0.9. For the same molecule, the LGR5 expression [3, 16] was 1.0, the AXIN2 expression [3, 17] was 1.5 and the LGR5 expression [3, 17] was 0.8. It also gave an AXIN2 expression [3, 18] of 0.7, an LGR5 expression [3, 18] of 0.1 and an AXIN2 expression [3, 19] of 0.7. For the same molecule, the LGR5 expression [3, 19] was 0.03, the AXIN2 expression ([4]; 1.25µM) was 0.7 and the LGR5 expression ([4]; 1.25µM) was 0.3. For the same molecule, the AXIN2 expression ([4]; 2.5µM) was 0.5, the LGR5 expression ([4]; 2.5µM) was 0.3 and the AXIN2 expression ([4]; 5µM) was 0.5. It also gave an LGR5 expression ([4]; 5µM) of 0.2, an AXIN2 expression ([4]; 10µM) of 0.6 and an LGR5 expression ([4]; 10µM) of 0.2. For the same molecule, the AXIN2 expression ([5]; 1.25µM) was 0.9, the LGR5 expression ([5]; 1.25µM) was 0.5 and the AXIN2 expression ([5]; 2.5µM) was 0.8. It also gave an LGR5 expression ([5]; 2.5µM) of 0.3, an AXIN2 expression ([5]; 5µM) of 0.7 and an LGR5 expression ([5]; 5µM) of 0.2. For the same molecule, the AXIN2 expression ([5]; 10µM) was 0.5, the LGR5 expression ([5]; 10µM) was 0.2 and the IC50 [6] was under 1.25 µM. The “ASCL2 expression, TCF^VP16+ CAP2 / control + CAP2” value [7] was 1.0, the “AXIN2 expression, TCF^VP16+ CAP2 / control + CAP2” value [7] was 16.1 and the “CDKN1A expression, TCF^VP16+ CAP2 / control + CAP2” value [7] was 0.5. The “LGR5 expression, TCF^VP16+ CAP2 / control + CAP2” value [7] was 0.7 and the “cMYC expression, TCF^VP16+ CAP2 / control + CAP2” value [7] was 2.7.
